Results published in ChEMBL document CHEMBL5214927, “Recent advance on carbamate-based cholinesterase inhibitors as potential multifunctional agents against Alzheimer's disease” (Eur J Med Chem, 2022).

Legend:
[1] = molecular target: T1, Acetylcholinesterase (Homo sapiens, UniProt P22303); experiment: Inhibition of human AChE
[2] = molecular target: T2, Cholinesterase (Homo sapiens, UniProt P06276); experiment: Inhibition of human serum BChE using butyrylthiocholine as substrate by Ellman's method
[3] = molecular target: T1, Acetylcholinesterase
Description: Inhibition of human erythrocyte AChE using acetylthiocholine iodide as substrate preincubated for 30 mins followed by substrate addition measured after 5 mins by Ellman's method

[4] = molecular target: T3, Cholinesterase (Equus caballus, UniProt P81908); experiment: Inhibition of equine BChE
[5] = molecular target: T4, Acetylcholinesterase (Electrophorus electricus, UniProt O42275); experiment: Inhibition of electric eel AChE
[6] = Selectivity index, ratio of IC50 for electric eel AChE to IC50 for equine BChE
[7] = molecular target: T1, Acetylcholinesterase; experiment: Inhibition of recombinant human AChE
[8] = molecular target: T5, Amine oxidase [flavin-containing] B (Homo sapiens, UniProt P27338); experiment: Inhibition of MAO-B (unknown origin)
T5 sequence (P27338 whole entry): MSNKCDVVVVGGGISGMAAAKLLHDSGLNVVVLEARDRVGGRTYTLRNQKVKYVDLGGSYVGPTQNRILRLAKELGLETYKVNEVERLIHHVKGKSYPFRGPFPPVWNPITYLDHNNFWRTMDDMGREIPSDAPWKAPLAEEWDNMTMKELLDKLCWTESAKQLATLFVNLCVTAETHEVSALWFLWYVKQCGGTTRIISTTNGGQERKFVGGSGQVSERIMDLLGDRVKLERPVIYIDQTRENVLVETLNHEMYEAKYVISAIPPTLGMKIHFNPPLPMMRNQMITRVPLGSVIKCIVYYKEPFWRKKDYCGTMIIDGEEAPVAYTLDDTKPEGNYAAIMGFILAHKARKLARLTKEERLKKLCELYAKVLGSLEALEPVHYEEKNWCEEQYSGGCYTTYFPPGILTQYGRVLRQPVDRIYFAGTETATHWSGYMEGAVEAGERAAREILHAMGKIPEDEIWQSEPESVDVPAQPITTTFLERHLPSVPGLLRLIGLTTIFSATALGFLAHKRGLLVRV

[9] = molecular target: T6, Amine oxidase [flavin-containing] A (Homo sapiens, UniProt P21397); experiment: Inhibition of MAO-A (unknown origin)
T6 sequence (P21397 whole entry): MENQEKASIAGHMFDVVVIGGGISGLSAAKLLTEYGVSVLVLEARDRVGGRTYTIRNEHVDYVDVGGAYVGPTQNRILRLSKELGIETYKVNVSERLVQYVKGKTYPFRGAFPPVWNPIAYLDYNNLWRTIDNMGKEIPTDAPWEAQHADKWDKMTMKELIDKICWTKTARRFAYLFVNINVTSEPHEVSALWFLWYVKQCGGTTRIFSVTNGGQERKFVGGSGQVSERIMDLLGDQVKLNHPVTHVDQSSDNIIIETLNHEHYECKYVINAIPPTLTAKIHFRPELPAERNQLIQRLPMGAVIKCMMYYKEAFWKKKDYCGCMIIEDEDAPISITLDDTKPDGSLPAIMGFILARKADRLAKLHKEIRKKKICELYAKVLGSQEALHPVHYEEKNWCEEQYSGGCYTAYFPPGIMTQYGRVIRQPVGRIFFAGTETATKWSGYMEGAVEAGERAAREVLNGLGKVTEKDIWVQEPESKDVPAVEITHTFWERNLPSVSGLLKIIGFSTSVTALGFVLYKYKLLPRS

[10] = molecular target: T2, Cholinesterase; experiment: Inhibition of human BChE
[11] = molecular target: T7, Cholinesterases; ACHE & BCHE (Homo sapiens) (UniProt P06276+P22303); experiment: Selectivity index, ratio of IC50 for recombinant human serum BChE to IC50 for recombinant human serum AChE; type: protein assay
[12] = molecular target: T4, Acetylcholinesterase; experiment: Inhibition of electric eel AChE using acetylthiocholine iodide as substrate incubated for 30 mins by Ellman's method
[13] = molecular target: T4, Acetylcholinesterase; experiment: Binding affinity to electric eel AChE assessed as inhibition constant using acetylthiocholine iodide as substrate incubated for 30 mins by Ellman's method
[14] = molecular target: T2, Cholinesterase; experiment: Inhibition of BChE (unknown origin)
[15] = molecular target: T7, Cholinesterases; ACHE & BCHE (Homo sapiens); experiment: Selectivity index, ratio of IC50 for AChE (unknown origin) to BChE (unknown origin); type: protein assay
[16] = molecular target: T1, Acetylcholinesterase; experiment: Inhibition of AChE (unknown origin)
[17] = molecular target: T3, Cholinesterase; experiment: Inhibition of equine BChE using acetylthiocholine iodide as substrate preincubated for 10 mins followed by substrate addition by Ellman's method
[18] = molecular target: T8, Acetylcholinesterase (Rattus norvegicus, UniProt P37136); experiment: Inhibition of rat AChE
T8 sequence (P37136 whole entry): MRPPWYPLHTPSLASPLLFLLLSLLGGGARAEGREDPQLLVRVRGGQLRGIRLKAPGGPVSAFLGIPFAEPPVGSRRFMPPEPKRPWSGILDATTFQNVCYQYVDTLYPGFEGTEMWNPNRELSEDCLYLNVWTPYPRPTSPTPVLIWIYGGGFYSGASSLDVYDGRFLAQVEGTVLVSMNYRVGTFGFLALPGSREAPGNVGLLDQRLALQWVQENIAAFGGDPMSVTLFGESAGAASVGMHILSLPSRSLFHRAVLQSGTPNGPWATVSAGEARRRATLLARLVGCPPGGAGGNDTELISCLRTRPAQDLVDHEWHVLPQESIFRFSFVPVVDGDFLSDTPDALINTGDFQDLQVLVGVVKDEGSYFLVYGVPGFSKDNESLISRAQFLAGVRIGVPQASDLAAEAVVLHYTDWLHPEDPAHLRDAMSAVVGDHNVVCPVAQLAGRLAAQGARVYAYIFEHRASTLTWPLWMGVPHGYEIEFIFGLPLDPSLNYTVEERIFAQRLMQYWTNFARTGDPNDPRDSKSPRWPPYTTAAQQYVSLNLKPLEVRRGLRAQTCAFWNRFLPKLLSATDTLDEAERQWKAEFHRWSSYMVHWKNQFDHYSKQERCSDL

T4 sequence (O42275 whole entry): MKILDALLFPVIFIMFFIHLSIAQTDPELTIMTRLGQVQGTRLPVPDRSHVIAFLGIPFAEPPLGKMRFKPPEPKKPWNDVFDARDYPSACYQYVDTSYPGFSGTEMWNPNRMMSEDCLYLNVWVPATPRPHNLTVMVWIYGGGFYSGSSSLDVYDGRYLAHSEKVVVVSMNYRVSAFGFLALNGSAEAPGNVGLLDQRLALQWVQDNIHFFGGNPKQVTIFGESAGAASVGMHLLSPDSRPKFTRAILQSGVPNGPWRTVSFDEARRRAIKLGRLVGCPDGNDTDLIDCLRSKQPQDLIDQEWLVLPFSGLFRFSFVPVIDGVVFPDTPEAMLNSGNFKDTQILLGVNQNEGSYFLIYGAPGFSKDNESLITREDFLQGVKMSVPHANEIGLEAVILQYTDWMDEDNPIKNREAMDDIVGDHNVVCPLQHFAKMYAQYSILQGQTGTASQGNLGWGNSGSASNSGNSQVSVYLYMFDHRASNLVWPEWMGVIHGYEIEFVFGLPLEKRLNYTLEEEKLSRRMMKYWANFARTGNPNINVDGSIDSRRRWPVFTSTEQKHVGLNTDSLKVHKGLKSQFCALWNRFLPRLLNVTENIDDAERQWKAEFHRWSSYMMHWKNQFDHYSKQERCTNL
T7 sequence (P06276 whole entry, looked up): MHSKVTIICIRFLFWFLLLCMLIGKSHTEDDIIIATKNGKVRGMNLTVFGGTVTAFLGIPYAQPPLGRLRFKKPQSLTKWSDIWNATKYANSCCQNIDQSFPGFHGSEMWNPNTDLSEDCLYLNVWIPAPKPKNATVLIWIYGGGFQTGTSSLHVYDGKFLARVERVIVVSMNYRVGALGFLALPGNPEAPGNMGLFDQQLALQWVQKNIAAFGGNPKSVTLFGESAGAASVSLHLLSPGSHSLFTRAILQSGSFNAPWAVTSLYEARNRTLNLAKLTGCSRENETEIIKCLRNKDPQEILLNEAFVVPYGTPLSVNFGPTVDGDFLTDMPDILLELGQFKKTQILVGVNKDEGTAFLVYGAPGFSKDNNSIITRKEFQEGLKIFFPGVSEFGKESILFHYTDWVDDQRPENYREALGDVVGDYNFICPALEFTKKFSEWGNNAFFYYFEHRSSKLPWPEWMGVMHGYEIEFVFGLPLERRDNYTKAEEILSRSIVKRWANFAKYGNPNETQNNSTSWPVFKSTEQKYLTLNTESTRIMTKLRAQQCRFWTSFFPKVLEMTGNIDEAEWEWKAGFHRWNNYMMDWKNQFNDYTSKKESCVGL
T7 sequence (P22303 whole entry, looked up): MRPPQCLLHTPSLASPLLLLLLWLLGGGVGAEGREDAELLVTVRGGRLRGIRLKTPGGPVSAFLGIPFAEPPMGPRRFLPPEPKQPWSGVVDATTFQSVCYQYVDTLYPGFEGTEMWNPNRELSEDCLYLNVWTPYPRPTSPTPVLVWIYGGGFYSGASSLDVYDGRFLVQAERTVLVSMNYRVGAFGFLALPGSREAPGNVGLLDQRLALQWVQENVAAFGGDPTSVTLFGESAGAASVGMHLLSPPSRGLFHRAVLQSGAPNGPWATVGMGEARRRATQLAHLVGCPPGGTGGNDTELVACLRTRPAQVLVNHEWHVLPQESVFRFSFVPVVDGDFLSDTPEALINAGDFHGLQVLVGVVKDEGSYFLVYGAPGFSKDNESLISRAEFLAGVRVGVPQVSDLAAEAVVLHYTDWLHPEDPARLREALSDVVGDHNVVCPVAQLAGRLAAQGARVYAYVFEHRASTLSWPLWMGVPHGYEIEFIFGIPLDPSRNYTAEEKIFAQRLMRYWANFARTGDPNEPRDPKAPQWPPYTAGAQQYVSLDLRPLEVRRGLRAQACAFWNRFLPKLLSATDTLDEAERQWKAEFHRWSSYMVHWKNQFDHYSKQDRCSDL
T2 sequence (P06276 whole entry): as the sequence (P06276 whole entry, looked up) above
T3 sequence (P81908 whole entry): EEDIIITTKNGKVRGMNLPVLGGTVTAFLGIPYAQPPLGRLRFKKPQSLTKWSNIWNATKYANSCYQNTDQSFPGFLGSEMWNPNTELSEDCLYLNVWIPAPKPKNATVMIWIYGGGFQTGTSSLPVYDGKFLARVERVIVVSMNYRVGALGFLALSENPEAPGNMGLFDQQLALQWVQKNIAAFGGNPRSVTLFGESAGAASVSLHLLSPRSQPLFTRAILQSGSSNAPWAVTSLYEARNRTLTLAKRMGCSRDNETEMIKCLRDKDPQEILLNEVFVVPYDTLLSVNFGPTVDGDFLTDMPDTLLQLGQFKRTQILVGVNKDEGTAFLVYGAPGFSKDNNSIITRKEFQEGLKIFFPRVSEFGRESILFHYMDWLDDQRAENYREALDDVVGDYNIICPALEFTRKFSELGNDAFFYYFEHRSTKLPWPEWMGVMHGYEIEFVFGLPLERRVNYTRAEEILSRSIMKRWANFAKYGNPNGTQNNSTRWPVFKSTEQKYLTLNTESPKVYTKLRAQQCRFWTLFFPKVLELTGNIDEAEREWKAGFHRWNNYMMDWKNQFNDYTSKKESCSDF
T1 sequence (P22303 whole entry): as the sequence (P22303 whole entry, looked up) above

Compound: COC(=O)c1cc2c(OC(=O)N(C)C)cccc2[n+]([11CH3])c1
- IC50 [1]: 0.02 µM

Compound: CN(CCCOc1ccc2c(=O)c3ccccc3oc2c1)Cc1cccc(OC(=O)NCCCCCCCCCN2CCOCC2)c1
- IC50 [2]: 0.0293 µM
- IC50 [3]: 0.0089 µM

Compound: O=C(Nc1cccc([N+](=O)[O-])c1)OCCNc1c2ccccc2nc2ccccc12
- IC50 [4]: 0.017 µM
- IC50 [5]: 0.0221 µM

Compound: CCCCCCCNC(=O)Oc1ccc(F)c(-c2coc3c4c(ccc3c2=O)OC(C)(C)C=C4)c1
- IC50 [4]: 0.093 µM
- Ratio IC50 [6]: 836
- IC50 [5]: 77.8 µM

Compound: CCN(C)C(=O)Oc1cc(OC(=O)N(C)CC)cc(C(O)CNC(C)(C)CC)c1 (configuration not stated)
- Ratio IC50 [6]: > 862

Compound: CCCCCCCCNC(=O)Oc1cc(OC(=O)NCCCCCCCC)cc(OC(=O)NCCCCCCCC)c1
- IC50 [5]: 0.015 µM

Compound: C#CCN[C@@H]1CCc2ccc(OC(=O)N(C)CC)cc21
- IC50 [7]: 1000 µM
- IC50 [8]: 2 µM
- IC50 [9]: 0.77 µM
- IC50 [10]: 4.1 µM

Compound: CNC(=O)Oc1cccc(CN(C)CCCCCCCOc2cccc(-c3cc(=O)c4ccccc4o3)c2)c1
- Ratio IC50 [11]: 122

Compound: COC(=O)CCC/C=C\C/C=C\C/C=C\CCOC(=O)Nc1cccc(Cl)c1
- IC50 [12]: 16.8 µM
- Ki [13]: 0.93 µM

Compound: CCN1/C(=C/C(C)=O)Sc2ccc(OC(=O)OCCOCCNC(=O)c3cc4c(OC(=O)N(C)C)cccc4[n+](C)c3)cc21
- IC50 [1]: 0.0814 µM
- IC50 [10]: 0.482 µM

Compound: CNC(=O)Oc1cccc(CN(C)CCCCCCCOc2ccc3c(=O)c4ccccc4oc3c2)c1
- IC50 [2]: 0.00032 µM
- IC50 [3]: 0.0516 µM

Compound: COC(=O)CCC/C=C\C/C=C\C/C=C\CCOC(=O)Nc1ccc(Br)cc1
- IC50 [12]: 19.2 µM
- Ki [13]: 1.1 µM

Compound: C#CCN(C)C1CCc2cccc(OC(=O)N(C)C)c21 (configuration not stated)
- IC50 [7]: 730 µM
- IC50 [8]: 0.33 µM
- IC50 [9]: 7 µM

Compound: CC(C)c1ccc(NC(=O)Oc2ccc3c(c2)[C@]2(C)CCO[C@@H]2O3)cc1
- IC50 [14]: 0.027 µM

Compound: C#CCN(C)C1CCc2c(OC(=O)N(C)CC)cccc21 (configuration not stated)
- IC50 [7]: 4 µM
- IC50 [8]: 0.027 µM
- IC50 [9]: 0.79 µM
- IC50 [10]: 14.9 µM

Compound: CCCCCCCNC(=O)Oc1ccc2c(c1)CN1CCc3ccc(/N=N\c4ccccc4)cc3C1N2C (configuration not stated)
- IC50 [14]: 0.0445 µM

Compound: COC(=O)C1=CN([11CH3])c2cccc(OC(=O)N(C)C)c2C1
- IC50 [1]: > 1000 µM

Compound: CC(C)c1ccc(NC(=O)Oc2ccc3c(c2)[C@]2(C)CCN(CCc4ccccc4)[C@@H]2N3C)cc1
- Ratio IC50 [15]: > 5000
- IC50 [16]: > 30 µM

Compound: CCCCCCCNC(=O)OCn1nc(-c2ccccc2OC)ccc1=O
- IC50 [17]: 12.8 µM

Compound: CN[C@@H](CCOc1ccc([N+](=O)[O-])cc1)c1ccc(OC(=O)N(C)C)cc1
- IC50 [18]: 0.101 µM

Compound: COC(=O)CCC/C=C\C/C=C\C/C=C\CCOC(=O)Nc1ccc(Cl)cc1
- IC50 [12]: 20.2 µM
- Ki [13]: 2.62 µM

Compound: CC(C)C[C@@H](CS(=O)(=O)NCc1ccc(Cl)cc1)NC(=O)OCc1ccccc1
- Ratio IC50 [6]: 10.3

Compound: O=C1CCOc2cc(OCCCCCSC(=S)N3CCCCC3)ccc21
- IC50 [7]: 0.1 µM

Compound: CN1CC[C@@]2(C)c3cc(OC(=O)Nc4ccccc4)ccc3N(C)[C@@H]12
- Ratio IC50 [15]: 65
